Data reported in publication PMC4791274, “Cerdulatinib, a novel dual SYK/JAK kinase inhibitor, has broad anti-tumor activity in both ABC and GCB types of diffuse large B cell lymphoma” (Oncotarget, 2015).

Assays:
[1] = tested on: ABC DLBCL cell lines; assay: MTT assay, ABC cell lines; format: cell-based; conditions: ABC cell lines with relatively higher total and phosphorylated STAT3, 72 h
Procedure: (§1) DLBCL cell lines were treated with various concentrations of cerdulatinib for up to 72 h. The metabolic activities of cells were determined with MTT assay according to manufacturer's instruction (Roche Applied Science, Indianapolis, IN) at 72 h time point. IC50 was calculated using the Sigma Plot generated with GraphPad Prism 6 software (GraphPad, La Jolla, CA). Cell growth was measured at every 24 h counting live cells with flow cytometry as previously described. Cells were collected every 24 h and cell viability was determined by the PE Annexin V Apoptosis Detection Kit I (BD Biosciences).

[2] = tested on: TYK2; conditions: biochemical assay; cited from earlier work
[3] = tested on: CHK1; conditions: biochemical assay; cited from earlier work
[4] = tested on: ZAP70; conditions: cited from earlier work
[5] = tested on: phosphorylation of STAT3 at Y705; assay: immunoblotting of p-STAT3 in IL-6/IL-10 stimulated DLBCL cell lines; format: cell-based; conditions: 3 μM, IL-6 and IL-10 stimulated ABC and GCB cell lines
Procedure: (§2) Immunoblotting were performed as previously described. Antibodies including total STAT3, SYK, PLCγ2, AKT, ERK1/2, PARP, caspase 3, and phosphorylated STAT3 (S727), STAT3 (Y705), SYK (Y525/526), PLCγ2 (Y759), PLCγ2 (Y1217), AKT (S473), ERK1/2 (Y204) and RB (S807/811) were purchased from Cell Signaling (Danvers, MA). Cyclin E antibody was purchased from Santa Cruz Biotechnology (Dallas, TX), and β-actin antibody was purchased from Sigma-Aldrich (St Louis, MO). Antibodies used in phosphoflow assay, including phosphorylated STAT3 (S727), SYK (Y525/526), PLCγ2 (Y759), AKT (S473), and ERK1/2 (Y204) were purchased from BD Biosciences (San Jose, CA).

[6] = tested on: primary CLL cells with the BTK C481S mutation; conditions: cited from earlier work
[7] = tested on: 24 kinases; conditions: biochemical assays, Table 1; read-out: IC50's against 24 kinases; cited from earlier work
[8] = tested on: JAK1; conditions: biochemical assay; cited from earlier work
[9] = tested on: FMS; conditions: biochemical assay; cited from earlier work
[10] = tested on: AMPK; conditions: biochemical assay; cited from earlier work
[11] = tested on: rat model of autoimmune disease; conditions: cited from earlier work
[12] = tested on: MARK1; conditions: biochemical assay; cited from earlier work
[13] = tested on: RSK4; conditions: biochemical assay; cited from earlier work
[14] = tested on: MLK1; conditions: biochemical assay; cited from earlier work
[15] = tested on: PAR1B-α; conditions: biochemical assay; cited from earlier work
[16] = tested on: MST2; conditions: biochemical assay; cited from earlier work
[17] = tested on: BCR-stimulated DLBCL cells; assay: annexin V / 7-AAD viability under BCR stimulation; format: cell-based; conditions: 3 μM, 48 h, anti-IgM and anti-IgG stimulation, all cell lines tested
Procedure: as §1

[18] = tested on: ITK; conditions: biochemical assay; cited from earlier work
[19] = tested on: LYN; conditions: cited from earlier work
[20] = tested on: LY8 (OCI-LY8) GCB DLBCL cell line; assay: MTT assay (cellular metabolic activity), 72 h; format: cell-based; conditions: OCI-Ly8, 72 h
Procedure: as §1

[21] = tested on: LY3 (OCI-LY3) ABC DLBCL cell line; assay: MTT assay (cellular metabolic activity), 72 h; format: cell-based; conditions: Homo sapiens, OCI-Ly3, 72 h
Procedure: as §1

[22] = tested on: FLT3; conditions: biochemical assay; cited from earlier work
[23] = tested on: LCK; conditions: cited from earlier work
[24] = tested on: JAK3; conditions: biochemical assay; cited from earlier work
[25] = tested on: TBK1; conditions: biochemical assay; cited from earlier work
[26] = tested on: GCK; conditions: biochemical assay; cited from earlier work
[27] = tested on: p-SYK; assay: immunoblotting of p-SYK in BCR-stimulated DLBCL cell lines; format: cell-based; conditions: 3 μM, anti IgM/IgG stimulated, all five cell lines
Procedure: as §2

[28] = tested on: RET; conditions: biochemical assay; cited from earlier work
[29] = tested on: RSK2; conditions: biochemical assay; cited from earlier work
[30] = tested on: TSSK; conditions: biochemical assay; cited from earlier work
[31] = tested on: patients with CLL and NHL; set-up: method as in Flinn I, et al. 2015 ASCO annual meeting Abstract #8531; conditions: oral, ref Flinn I, et al. 2015 ASCO annual meeting Abstract #8531; cited from earlier work
[32] = tested on: BCR-stimulated DLBCL cells; assay: BrdU S-phase analysis under BCR stimulation; format: cell-based; conditions: 3 μM, 48 h, anti-IgM and anti-IgG stimulation
Procedure: (§3) DLBCL cells were treated with various concentrations of cerdulatinib for 48 h. Cells were incubated with 10 μM BrdU (BD Biosciences, San Jose, CA) at 37°C for 2 h, and stained with PE conjugated anti-BrdU antibody (BD Biosciences) according to the supplier's manual. The percentage of cell cycle distribution was analyzed with FlowJo (Tree Star Inc. Ashland, OR).

[33] = tested on: DHL6 cells; assay: cell cycle analysis, BrdU incorporation; format: cell-based; conditions: DHL6, 48 h
Procedure: as §3

[34] = tested on: LY18 cells; assay: cell cycle analysis, BrdU incorporation; format: cell-based; conditions: LY18, 48 h
Procedure: as §3

[35] = tested on: HBL1 cells; assay: cell cycle analysis, BrdU incorporation; format: cell-based; conditions: HBL1, 48 h
Procedure: as §3

[36] = tested on: DHL2 cells; assay: cell cycle analysis, BrdU incorporation; format: cell-based; conditions: DHL2, 48 h
Procedure: as §3

[37] = tested on: LY3 cells; assay: cell cycle analysis, BrdU incorporation; format: cell-based; conditions: LY3, 48 h
Procedure: as §3

[38] = tested on: LY18 cells; assay: PARP and caspase 3 cleavage, Western blotting; format: cell-based; conditions: LY18, 48 h
Procedure: as §2

For CCS(=O)(=O)N1CCN(c2ccc(Nc3ncc(C(N)=O)c(NC4CC4)n3)cc2)CC1 [cerdulatinib], the IC50 [1] is given as 0.29 to 1.8 µM, the IC50 [2] is given as 0.5 nM and the IC50 [3] is given as 42 nM. The “cellular activity against ZAP70” value [4] was “lacking cellular activity”, the “phosphorylation of STAT3 at Y705” value [5] was “completely blocked” and the “proliferation of ibrutinib-resistant cells” value [6] was “completely blocking”. The IC50 [7] was under 0.2 µM, the IC50 [8] was 12 nM and the IC50 [9] was 5 nM. For the same molecule, the IC50 [10] was 6 nM, the inflammation [11] was “reduces inflammation” and the IC50 [12] was 10 nM. For the same molecule, the IC50 [13] was 28 nM, the IC50 [14] was 5 nM and the IC50 [15] was 13 nM. For the same molecule, the IC50 [16] was 15 nM, the “viability of stimulated DLBCL cells” value [17] was “reduced” and the IC50 [18] was 194 nM. For the same molecule, the “cellular activity against LYN” value [19] was “lacking cellular activity”, the IC50 [20] was 0.05 µM and the IC50 [21] was 1.66 µM. The IC50 [22] was 90 nM, the “cellular activity against LCK” value [23] was “lacking cellular activity” and the IC50 [24] was 8 nM. For the same molecule, the IC50 [25] was 10 nM, the IC50 [26] was 18 nM and the p-SYK level [27] was “significant reduction”. For the same molecule, the IC50 [28] was 105 nM, the IC50 [29] was 20 nM and the IC50 [30] was 14 nM. For the same molecule, the target tumor reductions [31] was “greater than 50%”, the “S-phase of BCR-stimulated tumor cells” value [32] was “sensitive” and the S phase fraction [33] was “significant dose-dependent reduction”. The S phase fraction [34] was “significant dose-dependent reduction”, the S phase fraction [35] was “significant dose-dependent reduction” and the “effect on S phase fraction” value [36] was “modest”. The “effect on S phase fraction” value [37] was “modest” and the “PARP and caspase 3 cleavage” value [38] was “little changes”.
